# Test results taken from publication PMC8199067, “Urolithin and Reduced Urolithin Derivatives as Potent Inhibitors of Tyrosinase and Melanogenesis: Importance of the 4-Substituted Resorcinol Moiety” (International Journal of Molecular Sciences, 2021).
# Values joined by “and” are separate entries in the source; they are usually repeats but may differ in a detail not shown here. Equal entries are not always repeated. Where two headings read alike, the source gives them in different places.
# Legend:
# mushroom tyrosinase [1] = target: T1, mushroom tyrosinase (Agaricus bisporus, UniProt C7FF04); test: Mushroom tyrosinase inhibitory assay (L-tyrosine substrate); assay type: biochemical; settings: for inhibition at 50 µM / Tyrosinase Inhibition (%): L-tyrosine as substrate, mean ± SEM, NI means no inhibition, 50 μM
# Procedure: The experiment was repeated three times. Mushroom tyrosinase inhibitions % were calculated using:% Inhibition = [1 − (A/B)] × 100(1) where A is the absorbance of the test compound and B is the absorbance of the blank.
# Log-linear curves were plotted, and their equations were determined.
# Target sequence in this assay (C7FF04 1-392 limits assumed): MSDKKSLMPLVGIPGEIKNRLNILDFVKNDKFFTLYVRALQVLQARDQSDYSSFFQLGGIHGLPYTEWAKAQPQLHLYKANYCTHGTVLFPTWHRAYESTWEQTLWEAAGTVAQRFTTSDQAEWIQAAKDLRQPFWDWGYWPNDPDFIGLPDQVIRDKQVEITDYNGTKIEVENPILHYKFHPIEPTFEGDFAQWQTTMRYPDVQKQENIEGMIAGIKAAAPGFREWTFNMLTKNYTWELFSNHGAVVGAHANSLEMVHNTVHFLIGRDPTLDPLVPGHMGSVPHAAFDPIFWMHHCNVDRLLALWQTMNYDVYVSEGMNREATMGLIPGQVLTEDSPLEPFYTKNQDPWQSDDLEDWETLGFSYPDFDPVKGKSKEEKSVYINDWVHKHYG
# mushroom tyrosinase [2] = target: T1, mushroom tyrosinase; test: Kinetic analysis of mushroom tyrosinase inhibition, Lineweaver–Burk plots; assay type: biochemical; settings: for Mode of tyrosinase inhibition: Lineweaver–Burk analysis, L-tyrosine as substrate
# Procedure: Briefly, 170 μL of a mixture of an aqueous solution of L-[…].0, 2.0, 4.0, or 8.0 mM and 50 mM of potassium phosphate (pH 6.5) was added to a 96-well plate. […] Lineweaver-Burk plots were used to determine Vmax (maximal reaction rates) and KM (Michaelis-Menten constants) of mushroom tyrosinase activities.
# Target sequence in this assay (C7FF04 1-392): as the sequence (C7FF04 1-392 limits assumed) above
# B16F10 melanoma cells = test: EZ-cytox cell viability assay; assay type: cell-based, murine; settings: 1–20 µM, 24 h
# Procedure: (§1) EZ-cytox assays were performed to examine whether these compounds are cytotoxic.
# (§2) B16F10 murine melanoma cells were purchased from the American Type Culture Collection (ATCC, Manassas, VA, USA). Cells were cultured in Dulbecco’s modified Eagle’s medium (10% fetal bovine serum (FBS), and 1% streptomycin) obtained from Gibco/Thermo Fisher Scientific (Carlsbad, CA, USA) at 37 °C in a 5% CO2 environment. These cultured cells were used for cell viability, melanin content, and cellular tyrosinase inhibitory assays.
# (§3) EZ-cytox assays were performed on 1c, 1h, and 2a, according to previously described. B16F10 cells were seeded in a 96-well plate at a density of 5 × 10^4 cells/well and incubated at 37 °C in a humidified 5% CO2 atmosphere overnight. Cells were then treated with different concentrations of 1c, 1h, or 2a (0, 1, 2, 5, 10, or 20 µM) and incubated for 24 h under the same conditions. EZ-cytox solution (10 µL) was then added and the plate was incubated for 3 h at 37 °C in a humidified 5% CO2 atmosphere. Optical densities of wells were measured at 450 nm using an ELISA reader. All experiments were independently repeated three times.
# [3] = EZ-cytox cell viability assay; assay type: cell-based, murine; settings: mouse, B16F10 melanoma cells, 20 µM
# Procedure: as §1, §2, §3
# [4] = 1.56 μM, read-out: Average of Inhibition (%)
# [5] = 1.56 μM, read-out: Inhibition (%), single determinations
# [6] = 3.13 μM, read-out: Average of Inhibition (%)
# [7] = 3.13 μM, read-out: Inhibition (%), single determinations
# [8] = 6.25 μM, read-out: Average of Inhibition (%)
# [9] = 6.25 μM, read-out: Inhibition (%), single determinations
# [10] = inhibitor 10 μM, L-tyrosine 1.0–8.0 mM
# [11] = not dependent on inhibitor concentration
smiles,measurement,setting,value
"COc1ccc2c(c1)oc(=O)c1ccccc12 [Compound 1b, 3-Methoxy-6H-benzo[c]chromen-6-one]",inhibition at 50 µM,mushroom tyrosinase [1],< 0%
"O=c1oc2cc(O)cc(O)c2c2ccccc12 [Compound 1c, 1,3-Dihydroxy-6H-benzo[c]chromen-6-one]","Inhibition (%), single determinations",mushroom tyrosinase [1]; 1.56 μM,4.01% and 2.57%
same,inhibition at 1.56 µM,mushroom tyrosinase [1]; [4],3.06 ± 0.47%
same,inhibition at 1.56 µM,mushroom tyrosinase [1]; [5],2.61%
same,"Inhibition (%), single determinations",mushroom tyrosinase [1]; 3.13 μM,10.84% and 9.94%
same,inhibition at 3.13 µM,mushroom tyrosinase [1]; [6],10.1 ± 0.37%
same,inhibition at 3.13 µM,mushroom tyrosinase [1]; [7],9.61%
same,"Inhibition (%), single determinations",mushroom tyrosinase [1]; 6.25 μM,25.08% and 33.10%
same,inhibition at 6.25 µM,mushroom tyrosinase [1]; [8],28.5 ± 2.39%
same,inhibition at 6.25 µM,mushroom tyrosinase [1]; [9],27.3%
same,"Inhibition (%), single determinations","mushroom tyrosinase [1]; 12.50 μM, 12.5 µM",45.18% and 48.37%
same,inhibition at 12.5 µM,"mushroom tyrosinase [1]; 12.50 μM, read-out: Average of Inhibition (%)",45.8 ± 1.37%
same,inhibition at 12.5 µM,"mushroom tyrosinase [1]; 12.50 μM, read-out: Inhibition (%), single determinations",43.7%
same,"Inhibition (%), single determinations",mushroom tyrosinase [1]; 25.00 μM,61.85%
same,inhibition at 25 µM,"mushroom tyrosinase [1]; 25.00 μM, read-out: Average of Inhibition (%)",61.21 ± 0.32%
same,inhibition at 25 µM,"mushroom tyrosinase [1]; 25.00 μM, read-out: Inhibition (%), single determinations",60.9%
same,Tyrosinase Inhibition (%),mushroom tyrosinase [1],68.93 ± 0.67%
same,inhibition at 50 µM,mushroom tyrosinase [1],69%
same,IC50,"mushroom tyrosinase [1]; mushroom tyrosinase, L-tyrosine, read-out: IC50",18.1 ± 0.25 µM
same,Mode of tyrosinase inhibition,mushroom tyrosinase [2],competitive inhibitors
same,Vmax,mushroom tyrosinase [2]; [10],0.027 mM/min
same,Vmax,"mushroom tyrosinase [2]; inhibitor 20 μM, L-tyrosine 1.0–8.0 mM",0.027 mM/min
same,Vmax,"mushroom tyrosinase [2]; inhibitor 40 μM, L-tyrosine 1.0–8.0 mM",0.027 mM/min
same,Vmax,mushroom tyrosinase [2]; [11],0.027 mM/min
same,Cytotoxic effect,B16F10 melanoma cells,weakly cytotoxic
same,"viability at 24 h, 20 µM",[3],71.4%
"COc1cc(OC)c2c(c1)oc(=O)c1ccccc12 [Compound 1d, 1,3-Dimethoxy-6H-benzo[c]chromen-6-one]",inhibition at 50 µM,mushroom tyrosinase [1],< 0%
"O=c1oc2cc(O)cc(O)c2c2ccc(O)cc12 [Compound 1f, 1,3,8-Trihydroxy-6H-benzo[c]chromen-6-one]",Tyrosinase Inhibition (%),mushroom tyrosinase [1],12.68 ± 6.09%
same,inhibition at 50 µM,mushroom tyrosinase [1],13%
"COc1ccc2c(c1)c(=O)oc1cc(O)ccc12 [Compound 1g, 3-Hydroxy-8-methoxy-6H-benzo[c]chromen-6-one]",inhibition at 50 µM,mushroom tyrosinase [1],< 0%
"COc1ccc2c(c1)c(=O)oc1cc(O)cc(O)c12 [Compound 1h, 1,3-Dihydroxy-8-methoxy-6H-benzo[c]chromen-6-one]",IC50,mushroom tyrosinase [1],4.14 ± 0.1 µM
same,"Inhibition (%), single determinations",mushroom tyrosinase [1]; 0.78 μM,15.61% and 18.94%
same,inhibition at 0.78 µM,"mushroom tyrosinase [1]; 0.78 μM, read-out: Average of Inhibition (%)",16.7 ± 1.1%
same,inhibition at 0.78 µM,"mushroom tyrosinase [1]; 0.78 μM, read-out: Inhibition (%), single determinations",15.7%
same,"Inhibition (%), single determinations",mushroom tyrosinase [1]; 1.56 μM,24.63% and 31.11%
same,inhibition at 1.56 µM,mushroom tyrosinase [1]; [4],28 ± 1.88%
same,inhibition at 1.56 µM,mushroom tyrosinase [1]; [5],28.3%
same,"Inhibition (%), single determinations",mushroom tyrosinase [1]; 3.13 μM,48.92%
same,inhibition at 3.13 µM,mushroom tyrosinase [1]; [6],48.78 ± 0.07%
same,inhibition at 3.13 µM,mushroom tyrosinase [1]; [7],48.7%
same,"Inhibition (%), single determinations",mushroom tyrosinase [1]; 6.25 μM,63.95% and 66.79%
same,inhibition at 6.25 µM,mushroom tyrosinase [1]; [8],64.9 ± 0.94%
same,inhibition at 6.25 µM,mushroom tyrosinase [1]; [9],64%
same,Tyrosinase Inhibition (%),mushroom tyrosinase [1],94.86 ± 0.16%
same,inhibition at 50 µM,mushroom tyrosinase [1],95%
same,Mode of tyrosinase inhibition,mushroom tyrosinase [2],competitive inhibitors
same,Vmax,"mushroom tyrosinase [2]; inhibitor 2.5 μM, L-tyrosine 1.0–8.0 mM",0.031 mM/min
same,Vmax,"mushroom tyrosinase [2]; inhibitor 5 μM, L-tyrosine 1.0–8.0 mM",0.031 mM/min
same,Vmax,mushroom tyrosinase [2]; [10],0.031 mM/min
same,Vmax,mushroom tyrosinase [2]; [11],0.031 mM/min
same,Cytotoxic effect,B16F10 melanoma cells,weakly cytotoxic
same,"viability at 24 h, 20 µM",[3],70.8%
"COc1ccc2c(c1)oc(=O)c1cc(OC)ccc12 [Compound 1i, 3,8-Dimethoxy-6H-benzo[c]chromen-6-one]",inhibition at 50 µM,mushroom tyrosinase [1],< 0%
"COc1cc(OC)c2c(c1)oc(=O)c1cc(OC)ccc12 [Compound 1j, 1,3,8-Trimethoxy-6H-benzo[c]chromen-6-one]",inhibition at 50 µM,mushroom tyrosinase [1],< 0%
